System: Zein protein
Experiment: Zein solubilization test (mildness)
Procedure: • 1. Prepare a 5 wt. % aqueous solution of the surfactant. If the natural pH of the system differs from that desired, adjust by incremental addition of acid or base. • 2. Mix 4 grams of Zein protein in 40 grams of the surfactant solution. Allow the mixture to stand at room temperature for 24 hours with frequent vigorous shaking. • 3. Filter the supernatant of the Zein/surfactant mixture using a syringe filter with a 0.45 micron Nylon membrane. Dilute the filtered solution 100-fold with 2% SDS solution (i.e., 0.1 gram filtered solution diluted in 10 grams of 2% SDS solution). As a reference, also prepare a diluted surfactant solution by mixing 0.1 grams of 5 wt. % surfactant solution with 10 grams of 2% SDS solution. • 4. The Zein concentration is determined using a UV/VIS spectrophotometer operated in the range 200-350 nm at a scanning rate of 800 nm/min, using a 2% SDS solution as the background. […] The Zein solubility in the 5 wt. % surfactant solution is C, times the dilution factor.
[…] Zein and surfactant were contacted for 24 hours.
Zein tests reported in Table V were all conducted at 45° C. rather than at room temperature.

Sodium lauryl ether sulfate [SLES] was tested, and the “Percent Zein Solubilized” value (Table I, pH 6.0, 5% total surfactant solutions, Zein and surfactant contacted 24 hours) was 4.64%, the “Percent Zein Solubilized” value (Table II, comparators at pH 6.0) was 4.11% and the “Percent Zein Solubilized” value (Table IV, C12 MAP blended with other carboxylic acids, pH 5.0) was 3.52%. For the same substance, the “Percent Zein Solubilized” value (Table V, C12 MAP blended with fatty alcohols, pH 5.0, conducted at 45° C.) was 3.52%, the “Percent Zein Solubilized” value (Table VI, negative controls, strong acid auxiliary agents, pH 5.0) was 3.52% and the “Percent Zein Solubilized” value (Table VII, C12 MAP acid 60/40 weight ratio with auxiliary, combined 5% in water, amino acid counterion to pH 5, listed as 42) was 3.55%. The “Percent Zein Solubilized” value (Table VII, C12 MAP acid 60/40 weight ratio with auxiliary, combined 5% in water, amino acid counterion to pH 5, listed as 46) was 3.42%.

Reference: patent US7241724B2, “Personal care compositions comprising alkyl phosphate surfactants and selected auxiliary surfactants” (priority 2005, dated 2007)
